Data: patent publication US10227339B2, “Salt form and crystal form of 1,2,5-thiadiazolidin-1,1-dioxide, preparation method thereof and intermediate” (JIANGSU KANION PARMACEUTICAL CO. LTD, priority 2015, dated 2019)
pEC50: −log10 of the molar value. ≈ marks a conversion by molar mass, not a printed value. Where two headings read alike, the source gives them in different places. Each block holds one molecule with its values, some of them ahead of it.

Columns and labels:
[1] = Solubility test of crystal form B in different solvents; type: physicochemical; conditions: thermodynamic from solid; for solubility at 4 h: read-out: Solubility (mg/mL) 4 h; for solubility at 24 h: read-out: Solubility (mg/mL) 24 h
Description: (§1) Solubility Test of Crystal Form B in Different Solvents Add 1^˜1.5 mg crystal form B of the compound 2 in volumetric flask, then single solvent or mixed solvent is added into the flask with multiple times until the solution become clear or solid particles disappear. The solubility of crystal form B in different solvents is determined thereby.

[2] = test system: HFMD virus EV71; assay: EV71 in-vitro cytopathic effect (CPE) test; type: cell-based; conditions: Enterovirus A, EV71, 72 h; RD cells, 3 days, CCK8 readout; read-out: EC50 by EC71 CPE test, EV71
Text: Activity Evaluation In Vitro Experimental 1: Test of EV71 In-Vitro Cytopathic Effect (CPE) Purpose of Experiment: To test the in-vitro antiviral activity and cytotoxicity of a compound to HFMD virus EV71 by means of cytopathic effect (CPE) test. Test Materials: 1. Virus strain: Shenzhen/120F1/09 2. Cell line: RD cells of human rhabdomyoma 3. Cell culture media: DMEM medium added with 10% serum, Penicillin/Streptomycin and L-Glutannine (1^×) 4. Test reagent: cellular activity test reagent CCK8 Test Method: 1. Cell inoculation: digest off the RD cells from the attached state, then dilute them with culture medium to a density of 80000/ml and inoculate 100 μl into the micro wells of the 96-well plate. 2. Dilution of Compound: Step 1: prepare the dry powder of a compound to be tested into a 10 mM solution in DMSO. Then dilute the compound by three times to eight concentration points. Dilute the reference compounds with the same method. Step 2: further dilute the diluted solution of the compound in DMSO with cell culture medium. Add 10 μl DMSO solution for each well into 240 μl culture medium. 3. Add the diluted compound solution by 50 μl each well into the 96-well plate inoculated with cells (double holes, final concentration of DMSO is 1%). 4. […] Use ELIASA to read the absorbancy at the wavelength of 450 nm and 630 nm. […]

[3] = Solubility test of crystal form A in different solvents; type: physicochemical; conditions: thermodynamic from solid
Description: as §1, with “Form a” for “Form B”, “form A” for “form B”, “compound 1” for “compound 2”

[4] = aqueous buffer, pH 3.5 buffer solution
[5] = aqueous buffer, pH 4.5 buffer solution
[6] = aqueous buffer, pH 5.5 buffer solution
[7] = aqueous buffer, pH 6.5 buffer solution
[8] = aqueous buffer, pH 6.8 buffer solution
[9] = aqueous buffer, pH 7.5 buffer solution
[10] = saline or isotonic, normal saline
[11] = simulated gastric fluid, 0.01N HCl
[12] = simulated gastric fluid, 0.1N HCl

solubility at 4 h [1, 4]: 232 mg/mL (≈ 463 mM)
solubility at 24 h [1, 4]: 186 mg/mL (≈ 370 mM)
solubility at 4 h [1, 5]: 6.12 mg/mL (≈ 12.2 mM)
solubility at 24 h [1, 5]: 4.54 mg/mL (≈ 9.05 mM)
solubility at 4 h [1, 6]: < 0.1 mg/mL
solubility at 24 h [1, 6]: < 0.1 mg/mL
solubility at 4 h [1, 7]: < 0.1 mg/mL
solubility at 24 h [1, 7]: < 0.1 mg/mL
solubility at 4 h [1, 8]: < 0.1 mg/mL
solubility at 24 h [1, 8]: < 0.1 mg/mL
solubility at 4 h [1, 9]: < 0.1 mg/mL
solubility at 24 h [1, 9]: < 0.1 mg/mL
solubility at 4 h [1, 10]: 42.9 mg/mL (≈ 85.5 mM)
solubility at 24 h [1, 10]: 43.4 mg/mL (≈ 86.6 mM)
solubility at 4 h [1, 11]: > 998 mg/mL
solubility at 24 h [1, 11]: > 986 mg/mL
solubility at 4 h [1, 12]: > 873 mg/mL
solubility at 24 h [1, 12]: > 935 mg/mL
solubility at 4 h ([1]; water): 416 mg/mL (≈ 829 mM)
solubility at 24 h ([1]; water): 346 mg/mL (≈ 690 mM)
Structure (SMILES): CCn1nnc(-c2ccc(OCCC(C)(C)CCN3CCN(c4ccnc(N)c4)S3(=O)=O)nc2)n1 [Compound 2]

pEC50 [2]: ≥ 8.00
solubility ([3]; aqueous with cosolvent or surfactant or cyclodextrin, solvent: Acetone-water (3:1)): < 2240 µg/mL
solubility ([3]; aqueous with cosolvent or surfactant or cyclodextrin, solvent: Ethanol-water (3:1)): < 2320 µg/mL
solubility ([3]; aqueous with cosolvent or surfactant or cyclodextrin, solvent: Methanol-water (3:1)): < 2070 µg/mL
solubility ([3]; organic solvent or mixture, solvent: 1,4-dioxane): 11800 to 13200 µg/mL (≈ 23.5 to 26.3 mM)
solubility ([3]; organic solvent or mixture, solvent: 2-Methyltetrahydrofuran): < 2180 µg/mL
solubility ([3]; organic solvent or mixture, solvent: acetone): 5580 to 7430 µg/mL (≈ 11.1 to 14.8 mM)
solubility ([3]; organic solvent or mixture, solvent: ethanol): < 2090 µg/mL
solubility ([3]; organic solvent or mixture, solvent: ethyl acetate): < 2130 µg/mL
solubility ([3]; organic solvent or mixture, solvent: methanol): < 1980 µg/mL
Structure (SMILES): CCn1nnc(-c2ccc(OCCC(C)(C)CCN3CCN(c4ccnc(N)c4)S3(=O)=O)nc2)n1 [Compound 1]
